Assay results from the OPERA property sets (Mansouri et al. 2018).
Where a SMILES comes first, the peptide text is derived from it. [ ]: non-standard residue; d: D form. ξ: configuration not given here. ξW = NC(Cc1c[nH]c2ccccc12)C(=O)O

Row | SMILES | logP
1 | NC(=O)C(CCN1CC2CCC(CC2)C1)(c1ccccc1)c1ccccn1 (configuration not stated) | 2.72
2 | CCCCON=C(C)c1cccc(Oc2nc(OC)cc(OC)n2)c1C(=O)OC | 4.11
3 | NC(Cc1ccc(O)cc1)C(=O)NCC(=O)NC(Cc1ccccc1)C(=O)O (stereo not drawn) (H-Tyr-Gly-Phe-OH; configuration not given here) | -1.86
4 | CC(C)C(=O)OCC1OC(n2cc(I)c(=O)[nH]c2=O)CC1O (configuration not stated) | 0.84
5 | Cc1ccc(S(=O)(=O)C2(C(=O)OC(C)C)CCCCC2)cc1 | 3.21
6 | CC(=O)OCOC(=O)N(C)N=Nc1ccc(C)cc1 | 3.28
7 | CN(c1nc2ccccc2s1)C1CCN(CCCCOc2ccc(F)cc2)CC1 | 5.37
8 | O=c1ccc2ccc3occc3c2s1 | 2.58
9 | CC(C)C(NC(=O)C(N)Cc1ccccc1)C(=O)NC(Cc1ccc(O)cc1)C(=O)NC(Cc1ccccc1)C(=O)O (configuration not stated) (H-FVYF-OH; configuration not given here) | -0.32
10 | Cc1ccccc1Nc1ccncc1S(=O)(=O)NC(=O)NC(C)C | 3.91
11 | CC(C)CC(N)C(=O)NC(C(=O)O)C(C)C (stereo not drawn) (H-Leu-Val-OH; configuration not given here) | -2.05
12 | COc1ccc(CCNCC(O)COc2ccc(-c3nc(Br)c[nH]3)cc2Cl)cc1OC (configuration not stated) | 4.3
13 | COc1ccc(SC)cc1CNC1CCCNC1c1ccccc1 (configuration not stated) | 3.7
14 | O=C1c2c(O)cccc2C(=CNc2ccccc2)c2cccc(O)c21 | 4.96
15 | Cc1cnc2ccc3c(nc(N)n3C)c2n1 | 1.01
16 | NC1=NCC(CN2CCC(c3ccccc3)CC2)O1 (configuration not stated) | 1.96
17 | Clc1c2ccccc2cc2ccccc12 | 5.27
18 | Cc1coc2cc3oc(=O)ccc3cc12 | 2.47
19 | CC(=O)NC(CCCCN(Cc1ccccc1)C(=O)N(CCCl)N=O)C(=O)NCc1ccccc1 (configuration not stated) | 2.46
20 | O=C1N=C(N2CCOCC2)CN1c1ccc(Cl)c(Cl)c1 | 1.9
21 | NCC(=O)NC(Cc1c[nH]c2ccccc12)C(N)=O (configuration not stated) (H-Gly-[ξW]-NH2) | -0.48
22 | Nc1nc(N)c2c(N)cccc2n1 | 0.3
23 | COc1ccc(O)c(C2=NC(C)(C(=O)O)CS2)c1 (configuration not stated) | 1.8
24 | Nc1nc(Cl)nc2c1ncn2[C@H]1C[C@H](O)[C@@H](CO)O1 | 0.02

Row | SMILES | logP
25 | COc1ccc(C2Cc3c(cccc3C(F)(F)F)N(CCN(C)C)C(=O)C2OC(C)=O)cc1 (configuration not stated) | 4.9
26 | COc1ccc(C2=NC(C)(C(=O)O)CS2)c(O)c1 (configuration not stated) | 1.7
27 | Cc1nc2c3c(c(C(=O)Nc4ccccc4)cn2c1C)CCC(c1ccccc1)O3 (configuration not stated) | 5.9
28 | O=C(O)Cc1cc(O)ccc1Nc1c(Cl)cccc1Cl | 3.94
29 | O=[N+]([O-])c1cccc(CNc2ncnc3nc[nH]c23)c1 | 2.03
30 | Cc1oc2ccc3c(C)cc(=O)oc3c2c1C | 3.28
31 | CC(=O)N(O)CCCCCNC(=O)CCC(=O)N(O)CCCCCNC(=O)CCC(=O)N(O)CCCCCNC(=O)CCC(=O)O | -0.51
32 | COc1coc(CCl)cc1=O | 0.16
33 | CCOC(=O)C(C)(Cc1ccccc1)S(=O)(=O)c1ccc([N+](=O)[O-])cc1 (configuration not stated) | 3.4
34 | CCc1ccc(OCC2CN=C(N)O2)cc1 (configuration not stated) | 2.27
35 | CC(Cl)C(=O)Nc1ccc(C2=NNC(=O)CC2C)cc1 (configuration not stated) | 1.4
36 | CC(N)C(=O)NCC(=O)NC(Cc1ccccc1)C(=O)NC(C(=O)NC(Cc1ccccc1)C(=O)O)C(C)C (configuration not stated) (H-AGFVF-OH; configuration not given here) | -1.1
37 | O=S(NC(=S)N1CCCCC1)c1cnccc1NC1CCCCC1 (configuration not stated) | 3.75
38 | CCn1ccnc1CC1COc2ccccc2O1 (configuration not stated) | 2.31
39 | CCC1(c2ccncc2)CCC(=O)NC1=O (configuration not stated) | 0.58
40 | NC(=O)C(Cc1c[nH]c2ccccc12)NC(=O)C(N)Cc1ccccc1 (stereo not drawn) (H-Phe-Trp-NH2; configuration not given here) | 1.38
41 | Fc1cncnc1 | -0.03
42 | CCC(C)(C)c1ccc(OCC2CN=C(N)O2)cc1 (configuration not stated) | 3.69
43 | O=c1c2c(nc3n1CCC3)CCC2 | 0.22
44 | Clc1ccc(N2CCN(CCCOn3nnc4ccccc43)CC2)cc1 | 4.15
45 | Cc1nc2c3c(c(C(=O)N4CCC4)cn2c1C)CCC(c1ccccc1)O3 (configuration not stated) | 3.4
46 | NC(=O)c1[nH]cc(-c2ccc(Cl)cc2)c1N1CCOCC1 | 2.4
47 | CCC(C)C(NC(=O)C(N)CC(C)C)C(=O)O (stereo not drawn) (H-Leu-Ile-OH; configuration not given here) | -1.64
48 | NC(=O)c1cccc(Cn2cnc3ccccc32)c1 | 1.7

Row | SMILES | logP
49 | CC(C)=CCCC(C)=CCCC(=CCCC(C)=CCO)CO | 4.7
50 | CCCCCCNc1ncnc2c1ncn2C1OC(CO)C(O)C1O (configuration not stated) | 2.24
51 | Clc1ccc(N2CCN(CCn3nnc4ccccc43)CC2)cc1 | 3.4
52 | COc1ccc2c(c1)CCN(C)C2 | 2.32
53 | COC(=O)c1cc2cccc3ccc4cccc1c4c32 | 4.73
54 | Cc1cc(CCCCCCCOc2ccc(C3=NCCO3)cc2)on1 | 4.79
55 | Cc1c(O)c(=O)ccn1CCCOC(=O)c1ccccn1 | -0.18
56 | O=C1N=C(N2CCCC2)CN1c1ccc(Cl)cc1 | 2
57 | COc1cc2c(c(OC)c1OC)-c1ccc(SC)c(=S)cc1C(NC(C)=O)CC2 (configuration not stated) | 1.75
58 | CC(C)(C)[N+]([O-])=Cc1ccc(Br)cc1 | 2
59 | COc1ccc(C=C2C(=O)NC(=S)NC2=O)cc1 | 0.76
60 | COC(=O)c1c(Oc2nc(OC)cc(OC)n2)cccc1C(C)=NOCc1ccccc1 | 4.01
61 | COc1ccc(F)cc1CNC1CCCNC1c1ccccc1 (configuration not stated) | 3.5
62 | CCC(C)C(N)C(=O)NC(C(=O)NCC(=O)NC(Cc1ccccc1)C(=O)O)C(C)CC (configuration not stated) (H-IIGF-OH; configuration not given here) | -0.99
63 | CC(C)(C)[N+]([O-])=Cc1ccc([N+](=O)[O-])cc1 | 1.4
64 | O=c1cc(CSC2CCCCC2)occ1O | 1.75
65 | CCOc1cccc(COC(=O)C2C(C=C(C)C(=O)OC)C2(C)C)c1 (configuration not stated) | 4.78
66 | COc1coc(CSC(=S)N(C)C)cc1=O | 1.14
67 | O=C(O)CCCCCON=C(c1ccccc1)c1ncccn1 | 2.25
68 | Nc1nnnn1-c1ccc2ccccc2c1 | 2.08
69 | C=C(C)C(=O)OCCCCCCCC(C)C | 5.28
70 | CC(C)CC(N)C(=O)NC(CC(C)C)C(=O)NC(C(=O)NC(Cc1ccccc1)C(=O)O)C(C)C (configuration not stated) (H-LLVF-OH; configuration not given here) | -0.25
71 | CCC1CC2C3CCC4=CC(=O)CCC4C3CCC2(C)C1C(=O)CO (configuration not stated) | 4.01
72 | CCC(C)C(N)C(=O)NC(C(=O)NC(C(=O)NC(C(=O)NCC(=O)O)C(C)CC)C(C)CC)C(C)CC (configuration not stated) (H-IIIIG-OH; configuration not given here) | -0.97

Row | SMILES | logP
73 | CC(C)(C)[N+]([O-])=Cc1ccc(C(=O)O)cc1 | 1.1
74 | COc1ccc(CCN(C)CCCC(C#N)(c2cc(OC)c(OC)c(OC)c2)C(C)C)cc1OC (configuration not stated) | 3.71
75 | Cn1c([N+](=O)[O-])cnc1C=NNC(N)=S | 0.65
76 | CON=C(C(=O)NC1C(=O)N2C(C(C)OC(=O)OC(C)C)=CCSC12)c1csc(N)n1 (configuration not stated) | 1.37
77 | CCCNC1CCc2c(O)cccc2C1C (configuration not stated) | 2.88
78 | COc1ccc(CCNCC(O)COc2ccc(Cc3nc(C(C)=O)c[nH]3)cc2)cc1OC (configuration not stated) | 2.3
79 | c1ccc(N2CCN(CCCOn3nnc4ccccc43)CC2)cc1 | 3.49
80 | CNC(=O)Nc1ccc(C(=O)O)cc1 | 1.1
81 | C=CCC1C(=O)N(CCN(C)C)c2cccc(C(F)(F)F)c2CC1c1ccc(OC)cc1 (configuration not stated) | 6.6
82 | NC1=NCC(CN2CCC(Cc3ccccc3)CC2)O1 (configuration not stated) | 2.38
83 | CC(C)CC(N)C(=O)NC(C(=O)NCC(=O)NC(C(=O)NC(Cc1ccccc1)C(=O)O)C(C)O)C(C)C (configuration not stated) (H-LVGTF-OH; configuration not given here) | -1.18
84 | CC1(C)C2Cc3ssc(=S)c3C1C2 (configuration not stated) | 3.7
85 | CCNC(=S)NS(=O)(=O)c1cnccc1NC1CCCCC1 | 3.1
86 | CCCCCCCCCCCCN=C=S | 7.13
87 | CCC(=O)Nc1ccc2cc3ccc(N)c(CO)c3nc2c1 | 1.55
88 | OCCN1CCN(CCCOn2nnc3ccccc32)CC1 | 0.43
89 | Cc1cccn2c1nc1ccc(N)nc12 | 1.75
90 | COCCNC(=O)c1c(C)nc2c3c(c(C(=O)N(C)C)cn12)CCC(c1ccccc1)O3 (configuration not stated) | 2.15
91 | OC(CNCCc1ccccc1)CON=C(C1CC1)C1CC1 (configuration not stated) | 2.44
92 | CC(C)C(NC(=O)C(Cc1ccccc1)NC(=O)CNC(=O)CN)C(=O)NC(Cc1ccccc1)C(=O)O (configuration not stated) (H-GGFVF-OH; configuration not given here) | -1.4
93 | NCC(=O)NC(Cc1ccccc1)C(=O)NC(Cc1ccccc1)C(=O)O (stereo not drawn) (H-Gly-Phe-Phe-OH; configuration not given here) | -1.33
94 | CCC1(C(=O)NC(C)c2ccc(Cl)cc2)C(C)C1(Cl)Cl (configuration not stated) | 4.23
95 | Nc1nc(O)nc(Nc2ccccc2)n1 | 1.9
96 | c1ccc(Nc2ncnc3nc[nH]c23)cc1 | 2.12

Row | SMILES | logP
97 | CC(C)CC(NC(=O)C(C)NC(=O)C(C)NC(=O)C(C)NC(=O)C(N)Cc1ccccc1)C(=O)O (configuration not stated) (H-FAAAL-OH; configuration not given here) | -2.23
98 | O=C1Oc2ccccc2CN1CCO[N+](=O)[O-] | 1.82
99 | Clc1cc(Cl)c(-c2cc(Cl)cc(Cl)c2Cl)c(Cl)c1 | 6.87
100 | O=c1nc2[nH]nc(-c3ccccc3)cc-2c(=O)[nH]1 | 1.56
101 | Cc1cnc(C(=O)OCCCn2ccc(=O)c(O)c2C)cn1 | -0.49
102 | CC(Nc1[nH]cnc2ncnc1-2)c1ccccc1 (configuration not stated) | 2.58
103 | CCNC(=O)NS(=O)(=O)c1cnccc1Nc1ccccc1C | 3.06
104 | CC1NCCc2c1[nH]c1ccc([N+](=O)[O-])cc21 (configuration not stated) | 2.07
105 | O=c1ccc2cc3ccoc3cc2s1 | 2.61
106 | CC1(C(Cl)Cl)C2C(Cl)C(Cl)C1(C(Cl)Cl)C(Cl)C2Cl (configuration not stated) | 5.52
107 | N#CN=C1NCCN1Cc1cnccc1Cl | 0.77
108 | CCCN(CCC)C1CCc2ccc(O)cc2C1 (configuration not stated) | 3.75
109 | CC1(C)Oc2ccc(C#N)cc2C(N2CCCC2=O)C1O (configuration not stated) | 2.32
110 | CC(C)(C)[N+]([O-])=Cc1ccc(Cl)cc1 | 2.4
111 | COc1ccccc1N1CCN(CCNCC(O)CON=C(C2CC2)C2CC2)CC1 (configuration not stated) | 3.21
112 | CC(C)N(CCC(C(N)=O)c1ccccc1Cl)C(C)C (configuration not stated) | 2.83
113 | CON=C(C(=O)NC1C(=O)N2C(C(C)OC(C)=O)=CCSC12)c1csc(N)n1 (configuration not stated) | 0.46
114 | O=C(c1c(O)c2ccc(Cl)cc2[nH]c1=O)C1CC1 | 2.35
115 | Nc1nnnn1-c1cccc([N+](=O)[O-])c1 | 0.67
116 | CCOC(=O)C(CCc1ccccc1)NC(C)C(=O)N1N=C(C(C)(C)C)SC1C(=O)O (configuration not stated) | 1.62
117 | CC(=NNC(=O)c1ccc(O)cc1)c1cnccn1 | 1.9
